This note sets out measurements from patent US9321764B2, “Dihydro-pyrrolopyridinone inhibitors” (AbbVie Inc., priority 2013, dated 2016).

In one assay the target is T1, BRD4 (BDI_K57-E168) (Homo sapiens, UniProt O60885).
T1 construct: BD1: amino acids K57-E168; made in house
Nature of the assay: TR-FRET bromodomain binding assay, first bromodomain of BRD4. To be noted: His-tagged BD1, 100 nM Alexa647 probe; TR-FRET protocol A-E given per row. The method in brief: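 Ki values come from IC50s (4-parameter logistic) corrected for probe Kd and concentration, normalised to no-compound and 1 μM unlabelled probe controls. Probe displacement by TR-FRET used 8 nM BD1 (K57-E168), 100 nM Alexa647 probe, 1 nM Eu-anti-His, 20 mM phosphate pH 6.0, 2% DMSO, 1 h, room temperature.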

In a further assay the target is T2, BRD4 (BDII_E352-M457) (Homo sapiens, UniProt O60885).
T2 construct: proliferation; Protocol; made in house
As to the kind of experiment: TR-FRET bromodomain binding assay, second bromodomain of BRD4. To be noted: His-tagged BD2, 30 nM Alexa647 probe; TR-FRET protocol A-E given per row. The procedure, abridged:
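His-tagged BRD4 BD2 ([…]) competed against an Alexa647-labelled BET-inhibitor probe in TR-FRET. Buffer was 20 mM sodium phosphate pH 6.0, 50 mM NaCl, 1 mM EDTA, 0.01% Triton X-100, 1 mM DTT, with method D DMSO series of 2.5 mM–800 nM (stock range). IC50 from 4-parameter fit, Ki from probe Kd and concentration.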

Assay [1] relates to breast cancer cell line MX-1. As to the kind of experiment: MX-1 cell line proliferation assay. The class given is cell-based. To be noted: Homo sapiens, MX1, 72 h, MX-1 cells, 3-day proliferation assay, Cell Titer Glo; read-out: Cellular proliferation EC50. The method in brief:
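Final compound concentrations spanned 0.0001 to 3 μM, added to 5000 cells/well plated the previous night in RPMI 1640 plus 10% FBS at 37 °C.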

For `Cn1cc(-c2cc(CNCCC(C)(C)C)ccc2Oc2ccc(F)cc2F)c2cc[nH]c(=O)c21` [Example 114, 3-[2-(2,4-difluorophenoxy)-5-{[(3,3-dimethylbutyl)amino]methyl}phenyl]-1-methyl-1,6-dihydro-7H-pyrrolo[2,3-c]pyridin-7-one], the Ki on BRD4 (BDI_K57-E168) came to 1410 nM; at BRD4 (BDII_E352-M457), 1200 nM. In addition, the EC50 in assay [1] is greater than 3000 nM.

Take `Cn1cc(-c2cc(S(C)(=O)=O)ccc2OCC2CCC2)c2cc[nH]c(=O)c21` [Example 28, 3-[2-(cyclobutylmethoxy)-5-(methylsulfonyl)phenyl]-1-methyl-1,6-dihydro-7H-pyrrolo[2,3-c]pyridin-7-one]: the Ki on BRD4 (BDI_K57-E168) worked out at 9.3 nM; on BRD4 (BDII_E352-M457), 53 nM. Also, in assay [1], the EC50 worked out at 129 nM.

Regarding `Cn1cc(-c2cc(CN3CCC(N)CC3)ccc2Oc2ccc(F)cc2F)c2cc[nH]c(=O)c21` [Example 111, 3-{5-[(4-aminopiperidin-1-yl)methyl]-2-(2,4-difluorophenoxy)phenyl}-1-methyl-1,6-dihydro-7H-pyrrolo[2,3-c]pyridin-7-one], the Ki at BRD4 (BDI_K57-E168) is 908 nM; at BRD4 (BDII_E352-M457) it was 337 nM. Moreover, in assay [1], the EC50 was 713 nM.

As to `CCS(=O)(=O)Nc1ccc(OCC2CC2)c(-c2cn(C)c3c(=O)[nH]ccc23)c1C` [Example 14, N-[4-(cyclopropylmethoxy)-2-methyl-3-(1-methyl-7-oxo-6,7-dihydro-1H-pyrrolo[2,3-c]pyridin-3-yl)phenyl]ethanesulfonamide], the results for the Ki on BRD4 (BDI_K57-E168) and at BRD4 (BDII_E352-M457) were 73 nM and 1340 nM, respectively. Besides, in assay [1], the EC50 stood at 506 nM.

Regarding `CCS(=O)(=O)NCc1ccc(Oc2ccc(F)cc2F)c(-c2cn(C)c3c(=O)[nH]ccc23)c1` [Example 106, N-[4-(2,4-difluorophenoxy)-3-(1-methyl-7-oxo-6,7-dihydro-1H-pyrrolo[2,3-c]pyridin-3-yl)benzyl]ethanesulfonamide], the values for the Ki at BRD4 (BDI_K57-E168) and on BRD4 (BDII_E352-M457) were 31 nM and 67 nM, respectively. Further, the EC50 in assay [1] was found to be 338 nM.

Turning to `CCc1cc2c(-c3cc(CS(C)(=O)=O)ccc3Oc3ccc(F)cc3F)cn(C)c2c(=O)[nH]1` [Example 92, 3-{2-(2,4-difluorophenoxy)-5-[(methylsulfonyl)methyl]phenyl}-5-ethyl-1-methyl-1,6-dihydro-7H-pyrrolo[2,3-c]pyridin-7-one], the values for the Ki at BRD4 (BDI_K57-E168) and on BRD4 (BDII_E352-M457) were 1.7 nM and 1.8 nM, respectively. The EC50 in assay [1] is 8 nM.

In the case of `COc1cccc(CNc2ccc(Oc3ccc(F)cc3F)c(-c3cn(C)c4c(=O)[nH]ccc34)c2)c1OCc1ccccc1` [Example 177, 3-[5-{[2-(benzyloxy)-3-methoxybenzyl]amino}-2-(2,4-difluorophenoxy)phenyl]-1-methyl-1,6-dihydro-7H-pyrrolo[2,3-c]pyridin-7-one], the inhibition constant Ki was 133 nM on BRD4 (BDI_K57-E168) and 248 nM on BRD4 (BDII_E352-M457). Moreover, the EC50 in assay [1] is greater than 3000 nM.

As for `Cn1cc(-c2cc(NC(=O)Cc3cccc(Oc4ccccc4)c3)ccc2Oc2ccc(F)cc2F)c2cc[nH]c(=O)c21` [Example 154, N-[4-(2,4-difluorophenoxy)-3-(1-methyl-7-oxo-6,7-dihydro-1H-pyrrolo[2,3-c]pyridin-3-yl)phenyl]-2-(3-phenoxyphenyl)acetamide], the Ki came out at 1760 nM on BRD4 (BDI_K57-E168) and 828 nM at BRD4 (BDII_E352-M457). Also, the EC50 in assay [1] turned out to be 1590 nM.

With `CCS(=O)(=O)Nc1ccc(Oc2ccc(F)cc2F)c(-c2cn(C)c3c(=O)[nH]c(C(=O)NCCN(C)C)cc23)c1` [Example 188, 3-{2-(2,4-difluorophenoxy)-5-[(ethylsulfonyl)amino]phenyl}-N-[2-(dimethylamino)ethyl]-1-methyl-7-oxo-6,7-dihydro-1H-pyrrolo[2,3-c]pyridine-5-carboxamide], the figures for the Ki on BRD4 (BDI_K57-E168) and at BRD4 (BDII_E352-M457) were 1.42 nM and 13.5 nM, respectively. Further, the EC50 in assay [1] turned out to be 29.9 nM.

Take `Cn1cc(-c2cc(S(C)(=O)=O)ccc2Oc2ccc3ccccc3c2)c2cc[nH]c(=O)c21` [Example 63, 1-methyl-3-[5-(methylsulfonyl)-2-(naphthalen-2-yloxy)phenyl]-1,6-dihydro-7H-pyrrolo[2,3-c]pyridin-7-one]: the values for the Ki at BRD4 (BDI_K57-E168) and on BRD4 (BDII_E352-M457) were 74 nM and 66 nM, respectively. In addition, the EC50 in assay [1] was 187 nM.

For `Cn1cc(-c2cc(S(C)(=O)=O)ccc2NCc2ccc(C#N)cc2)c2cc[nH]c(=O)c21` [Example 46, 4-({[2-(1-methyl-7-oxo-6,7-dihydro-1H-pyrrolo[2,3-c]pyridin-3-yl)-4-(methylsulfonyl)phenyl]amino}methyl)benzonitrile], the Ki on BRD4 (BDI_K57-E168) was found to be 205 nM; at BRD4 (BDII_E352-M457) it was 1090 nM. Further, the EC50 in assay [1] came out at 479 nM.

For `CCS(=O)(=O)Nc1cnc(Oc2ccc(F)cc2F)c(-c2cn(C)c3c(=O)[nH]ccc23)c1` [Example 184, N-[6-(2,4-difluorophenoxy)-5-(1-methyl-7-oxo-6,7-dihydro-1H-pyrrolo[2,3-c]pyridin-3-yl)pyridin-3-yl]ethanesulfonamide], the figures for the Ki on BRD4 (BDI_K57-E168) and at BRD4 (BDII_E352-M457) were 5.31 nM and 4.72 nM, respectively. In addition, the EC50 in assay [1] turned out to be 309 nM.

Consider `Cc1ccc(CS(=O)(=O)NCc2ccc(Oc3ccc(F)cc3F)c(-c3cn(C)c4c(=O)[nH]ccc34)c2)cc1` [Example 132, N-[4-(2,4-difluorophenoxy)-3-(1-methyl-7-oxo-6,7-dihydro-1H-pyrrolo[2,3-c]pyridin-3-yl)benzyl]-1-(4-methylphenyl)methanesulfonamide], for which the inhibition constant Ki at BRD4 (BDI_K57-E168) came to 249 nM; at BRD4 (BDII_E352-M457) it was 1240 nM. Moreover, in assay [1], the EC50 worked out at 658 nM.

`Cn1cc(-c2cc(S(C)(=O)=O)ccc2OCCC2CC2)c2c(Cl)c[nH]c(=O)c21` [Example 109, 4-chloro-3-[2-(2-cyclopropylethoxy)-5-(methylsulfonyl)phenyl]-1-methyl-1,6-dihydro-7H-pyrrolo[2,3-c]pyridin-7-one]: the values for the Ki on BRD4 (BDI_K57-E168) and on BRD4 (BDII_E352-M457) were 57 nM and 67 nM, respectively. Besides, the EC50 in assay [1] was found to be 268 nM.

On to `CCS(=O)(=O)Nc1ccc(Oc2ccc(F)cc2F)c(-c2cn(C)c3c(=O)[nH]c(C(=O)NCCCO)cc23)c1` [Example 190, 3-{2-(2,4-difluorophenoxy)-5-[(ethylsulfonyl)amino]phenyl}-N-(3-hydroxypropyl)-1-methyl-7-oxo-6,7-dihydro-1H-pyrrolo[2,3-c]pyridine-5-carboxamide], for which the Ki turned out to be 2.01 nM at BRD4 (BDI_K57-E168) and 3.85 nM at BRD4 (BDII_E352-M457). The EC50 in assay [1] came to 82 nM.

`Cn1cc(-c2ccccc2Oc2ccccc2)c2cc[nH]c(=O)c21` [Example 1, 1-methyl-3-(2-phenoxyphenyl)-1,6-dihydro-7H-pyrrolo[2,3-c]pyridin-7-one]: the figures for the Ki on BRD4 (BDI_K57-E168) and on BRD4 (BDII_E352-M457) were 85 nM and 313 nM, respectively. In addition, the EC50 in assay [1] was 584 nM.

For the compound `CCS(=O)(=O)c1ccc(Oc2ccc(C#N)cc2)c(-c2cn(C)c3c(=O)[nH]ccc23)c1` [Example 78, 4-[4-(ethylsulfonyl)-2-(1-methyl-7-oxo-6,7-dihydro-1H-pyrrolo[2,3-c]pyridin-3-yl)phenoxy]benzonitrile], the inhibitory constant (Ki) on BRD4 (BDI_K57-E168) was 20 nM; at BRD4 (BDII_E352-M457) it was 73 nM. In addition, in assay [1], the EC50 amounted to 88 nM.

Turning to `CCS(=O)(=O)Nc1ccc(Oc2ccc(F)cc2F)c(-c2cn(C)c3c(=O)[nH]c(C(=O)NCC4CCOC4)cc23)c1` (stereo not drawn) [Example 199, 3-{2-(2,4-difluorophenoxy)-5-[(ethylsulfonyl)amino]phenyl}-1-methyl-7-oxo-N-(tetrahydrofuran-3-ylmethyl)-6,7-dihydro-1H-pyrrolo[2,3-c]pyridine-5-carboxamide], the Ki on BRD4 (BDI_K57-E168) worked out at 3.63 nM; on BRD4 (BDII_E352-M457), 6.5 nM. Also, in assay [1], the EC50 amounted to 36.8 nM.

As for `CCS(=O)(=O)c1ccc(Oc2ccccc2C#N)c(-c2cn(C)c3c(=O)[nH]ccc23)c1` [Example 83, 2-[4-(ethylsulfonyl)-2-(1-methyl-7-oxo-6,7-dihydro-1H-pyrrolo[2,3-c]pyridin-3-yl)phenoxy]benzonitrile], the Ki on BRD4 (BDI_K57-E168) came to 43 nM; on BRD4 (BDII_E352-M457), 46 nM. Also, the EC50 in assay [1] worked out at 100 nM.

For `CC(C)S(=O)(=O)Nc1ccc(Oc2ccc(F)cc2F)c(-c2cn(C)c3c(=O)[nH]ccc23)c1` [Example 3, N-[4-(2,4-difluorophenoxy)-3-(1-methyl-7-oxo-6,7-dihydro-1H-pyrrolo[2,3-c]pyridin-3-yl)phenyl]propane-2-sulfonamide], the Ki at BRD4 (BDI_K57-E168) was determined as 26 nM; at BRD4 (BDII_E352-M457), 43 nM. For the same compound, the EC50 in assay [1] is 161 nM.

Regarding `Cn1cc(-c2cc(CNCc3ccoc3)ccc2Oc2ccc(F)cc2F)c2cc[nH]c(=O)c21` [Example 127, 3-[2-(2,4-difluorophenoxy)-5-{[(furan-3-ylmethyl)amino]methyl}phenyl]-1-methyl-1,6-dihydro-7H-pyrrolo[2,3-c]pyridin-7-one], the values for the Ki at BRD4 (BDI_K57-E168) and at BRD4 (BDII_E352-M457) were 619 nM and 476 nM, respectively. For the same compound, the EC50 in assay [1] was found to be 947 nM.

Turning to `Cn1cc(-c2cc(CNS(=O)(=O)Cc3ccc(C#N)cc3)ccc2Oc2ccc(F)cc2F)c2cc[nH]c(=O)c21` [Example 134, 1-(4-cyanophenyl)-N-[4-(2,4-difluorophenoxy)-3-(1-methyl-7-oxo-6,7-dihydro-1H-pyrrolo[2,3-c]pyridin-3-yl)benzyl]methanesulfonamide], the Ki at BRD4 (BDI_K57-E168) was found to be 103 nM; on BRD4 (BDII_E352-M457) it was 518 nM. The EC50 in assay [1] came to 456 nM.
